# From US10633353B2, “Polymerizable compound, composition, polymer, optically anisotropic body, liquid crystal display element, and organic EL display” (DIC Corporation, priority 2014, dated 2020)
# Assay: Preservation stability of the coating liquid
# Format: physicochemical
# Details: coating liquid stored for 2 months shielded from light at 0° C.; appearance and GPC
# Method: The preservation stability of the coating liquid was evaluated on a scale of A to E on the basis of the state of the coating liquid that was stored for 2 months under a condition where the coating liquid was shielded from light at 0° C.
# A: No visual change in the appearance of the coating liquid was confirmed. A GPC analysis of the coating liquid confirmed that the change in the composition of the coating liquid was 1% or less.
# B: No visual change in the appearance of the coating liquid was confirmed. A GPC analysis of the coating liquid confirmed that the change in the composition of the coating liquid was 2% or less.
# C: A visual change in the appearance of the coating liquid was confirmed; a trace amount of insoluble components were confirmed, or a GPC analysis of the coating liquid confirmed that the change in the composition of the coating liquid was 3% or less.
# D: A visual change in the appearance of the coating liquid was confirmed; insoluble components were confirmed. The ratio of the weight of the insoluble components to the total solid content was 5% or less.
# E: A large amount of insoluble components were visually confirmed. The ratio of the weight of the insoluble components to the total solid content was 5% or more.
row,SMILES,Preservation stability
1,C=CC(=O)OCCCCOc1ccc(C(=O)OCCc2ccc(OC(=O)c3ccc(OCCCCOC(=O)C=C)cc3)c(/C=N/N(CCCCCC)c3nc4ccc5ccccc5c4s3)c2)cc1 [1-c-40],A (No visual change in the appearance of the coating liquid was confirmed. A GPC analysis of the coating liquid confirmed that the change in the composition of the coating liquid was 1% or less.)
2,C=CC(=O)OCCCOc1ccc(C(=O)OCCc2ccc(CCOC(=O)c3ccc(OCCCOC(=O)C=C)cc3)c(/C=N/N(C(=O)C=C)c3nc(-c4ccc5ccccc5c4)cs3)c2)cc1 [1-c-41],A (No visual change in the appearance of the coating liquid was confirmed. A GPC analysis of the coating liquid confirmed that the change in the composition of the coating liquid was 1% or less.)
3,C=CC(=O)OCCCCCCOc1ccc(OC(=O)C2CCC(C(=O)OCCc3ccc(OC(=O)C4CCC(C(=O)Oc5ccc(OCCCCCCOC(=O)C=C)cc5)CC4)c(/C=N/Nc4cccc5ccccc45)c3)CC2)cc1 (centres unmarked) [1-c-42],B (No visual change in the appearance of the coating liquid was confirmed. A GPC analysis of the coating liquid confirmed that the change in the composition of the coating liquid was 2% or less.)
4,C=CC(=O)OCCCCCCOc1ccc(/C=C/C(=O)Oc2ccc(OC(=O)/C=C/c3ccc(OCCCCCCOC(=O)C=C)cc3)c(/C=N/Nc3nc4ccccc4s3)c2)cc1 [1-c-43],B (No visual change in the appearance of the coating liquid was confirmed. A GPC analysis of the coating liquid confirmed that the change in the composition of the coating liquid was 2% or less.)
5,C=CC(=O)OCCCOc1ccc(/C=C/C(=O)Oc2ccc(OC(=O)/C=C/c3ccc(OCCCOC(=O)C=C)cc3)c(/C=N/Nc3nc4ccccc4s3)c2)cc1 [1-c-44],B (No visual change in the appearance of the coating liquid was confirmed. A GPC analysis of the coating liquid confirmed that the change in the composition of the coating liquid was 2% or less.)
6,C=CC(=O)OCCCCOc1ccc(/C=C/C(=O)Oc2ccc(OC(=O)/C=C/c3ccc(OCCCCOC(=O)C=C)cc3)c(/C=N/Nc3nc4ccccc4s3)c2)cc1 [1-c-45],B (No visual change in the appearance of the coating liquid was confirmed. A GPC analysis of the coating liquid confirmed that the change in the composition of the coating liquid was 2% or less.)
7,C=CC(=O)OCCCOc1ccc(/C=C/C(=O)Oc2ccc(OC(=O)/C=C/c3ccc(OCCCOC(=O)C=C)c(OC)c3)c(/C=N/Nc3nc4ccccc4s3)c2)cc1OC [1-c-46],B (No visual change in the appearance of the coating liquid was confirmed. A GPC analysis of the coating liquid confirmed that the change in the composition of the coating liquid was 2% or less.)
8,C=CC(=O)OCCCOc1ccc(/C=C/C(=O)Oc2ccc(OC(=O)/C=C/c3ccc(OCCCOC(=O)C=C)c(Cl)c3)c(/C=N/Nc3nc4ccccc4s3)c2)cc1Cl [1-c-47],B (No visual change in the appearance of the coating liquid was confirmed. A GPC analysis of the coating liquid confirmed that the change in the composition of the coating liquid was 2% or less.)
9,C=C(C)C(=O)OCCCOc1ccc(/C=C/C(=O)Oc2ccc(OC(=O)/C=C/c3ccc(OCCCOC(=O)C(=C)C)cc3)c(/C=N/Nc3nc4ccccc4s3)c2)cc1 [1-c-48],B (No visual change in the appearance of the coating liquid was confirmed. A GPC analysis of the coating liquid confirmed that the change in the composition of the coating liquid was 2% or less.)
10,C=CC(=O)OCCCOc1ccc(CCC(=O)Oc2ccc(OC(=O)CCc3ccc(OCCCOC(=O)C=C)cc3)c(/C=N/Nc3nc4ccccc4s3)c2)cc1 [1-c-49],A (No visual change in the appearance of the coating liquid was confirmed. A GPC analysis of the coating liquid confirmed that the change in the composition of the coating liquid was 1% or less.)
11,C=CC(=O)OCCCCOc1ccc(CCC(=O)Oc2ccc(OC(=O)CCc3ccc(OCCCCOC(=O)C=C)cc3)c(/C=N/Nc3nc4ccccc4s3)c2)cc1 [1-c-50],A (No visual change in the appearance of the coating liquid was confirmed. A GPC analysis of the coating liquid confirmed that the change in the composition of the coating liquid was 1% or less.)
